# According to publication doi:10.1101/2025.03.27.645769, “Structural Insights into Kainate Receptor Desensitization” (bioRxiv, 2025):
# Molecular target: T1, GluK2 (Rattus norvegicus, UniProt P42260)
# T1 construct: gene Grik2; wild-type rat GluK2 expressed in HEK293T cells
# Assay: whole-cell patch-clamp, potentiation of glutamate-evoked peak current
# Format: cell-based
# T1 sequence (P42260 32-908): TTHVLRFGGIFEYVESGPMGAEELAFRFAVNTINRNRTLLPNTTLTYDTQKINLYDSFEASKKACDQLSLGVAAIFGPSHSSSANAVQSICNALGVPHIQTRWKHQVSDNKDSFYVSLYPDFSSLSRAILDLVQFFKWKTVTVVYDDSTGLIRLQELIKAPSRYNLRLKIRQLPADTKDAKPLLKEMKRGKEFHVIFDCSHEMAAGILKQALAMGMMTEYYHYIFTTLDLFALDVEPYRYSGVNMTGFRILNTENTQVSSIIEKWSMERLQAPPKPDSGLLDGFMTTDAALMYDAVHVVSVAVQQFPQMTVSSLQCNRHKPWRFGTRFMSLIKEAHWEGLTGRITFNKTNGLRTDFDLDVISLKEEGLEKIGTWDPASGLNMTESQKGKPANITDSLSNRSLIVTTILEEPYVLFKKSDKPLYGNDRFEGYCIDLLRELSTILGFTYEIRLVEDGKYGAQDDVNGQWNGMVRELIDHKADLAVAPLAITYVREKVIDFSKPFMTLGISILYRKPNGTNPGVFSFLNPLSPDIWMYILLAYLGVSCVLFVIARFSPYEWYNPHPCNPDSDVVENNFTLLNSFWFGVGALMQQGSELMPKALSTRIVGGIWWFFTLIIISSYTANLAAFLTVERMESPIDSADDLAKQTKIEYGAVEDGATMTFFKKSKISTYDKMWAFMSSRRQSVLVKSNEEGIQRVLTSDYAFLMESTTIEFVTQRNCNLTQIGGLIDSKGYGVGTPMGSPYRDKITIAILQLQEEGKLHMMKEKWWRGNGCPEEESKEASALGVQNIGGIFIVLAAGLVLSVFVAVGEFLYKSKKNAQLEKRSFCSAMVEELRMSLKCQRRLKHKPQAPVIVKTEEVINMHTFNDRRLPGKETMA
smiles,measurement,value
O=S1(=O)NCN(C2CC2)c2ccc(F)cc21 [BPAM344],"whole-cell patch-clamp, potentiation of glutamate-evoked peak current",Potentiation of the peak current amplitudes (Ipeak) of GluK2 WT (left)
